pIC50: −log10 of the molar value.
Columns and labels:
human CRTH2 receptor = target: T1, human CRTH2 receptor (Homo sapiens, UniProt Q9Y5Y4, V204A); assay: Receptor binding assay: [3H]PGD2 competition on whole COS-7 cells transfected with CRTH2; settings: 0.1 nM [3H]PGD2, whole cells, 3 h at 4° C.
T1 construct: expressed in transfected cells; host or cells: COS-7 cells, transient, pcDNA3.1(+)
T1 sequence (Q9Y5Y4 1-395 V204A): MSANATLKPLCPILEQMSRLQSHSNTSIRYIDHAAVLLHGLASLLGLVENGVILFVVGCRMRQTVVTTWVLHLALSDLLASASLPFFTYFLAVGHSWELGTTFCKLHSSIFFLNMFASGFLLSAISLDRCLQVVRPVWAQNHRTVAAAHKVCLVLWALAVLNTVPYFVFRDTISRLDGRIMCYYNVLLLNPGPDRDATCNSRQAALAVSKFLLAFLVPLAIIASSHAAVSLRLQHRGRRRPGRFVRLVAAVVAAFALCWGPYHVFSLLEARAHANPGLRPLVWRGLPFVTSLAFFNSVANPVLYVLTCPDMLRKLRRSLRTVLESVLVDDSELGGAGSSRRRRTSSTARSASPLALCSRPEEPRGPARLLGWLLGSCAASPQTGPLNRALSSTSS
Text: (§1) Generation/origin of the cDNA Constructs. The coding sequence of the human CRTH2 receptor (genbank accession no NM_004778) was amplified by PCR from a human hippocampus cDNA library and inserted into the pcDNA3.1(+) expression vector (invitrogen) via 5′ HindIII and 3′ EcoRI. To generate a CRTH2-Renilla luciferase (CRTH2-Rluc) fusion protein, the CRTH2 coding sequence without a STOP codon and Rluc were amplified, fused in frame by PCR and subcloned into the pcDNA3.1(+)Zeo expression vector (invitrogen). Human β-arrestin2 (β-arr2) N-terminally tagged with GFP^2 (βarr2-GFP^2) and Renilla luciferase were purchased from BioSignal Packard Inc, (Montreal, Canada). The sequence identity of the construct was verified by restriction endonuclease digests and sequencing in both directions on an ABI Prism (Applied Biosystems, Foster City, Calif.).
(§2) Cell Culture and Transfection. COS-7 cells were grown in Dulbecco's modified Eagle's medium (DMEM) 1885 supplemented with 10% fetal bovine serum, 100 units/ml penicillin, […] streptomycin, and kept at 37° C. in a 10% CO2 atmosphere. HEK293 cells were maintained in Minimum Essential medium (MEM) supplemented with 10% (v/v) heat inactivated fetal calf serum (HIFCS), 2 mM Glutamax™-I, 1% non essential amino acids (NEAA), 1% sodium pyruvate and 10 μg/ml gentamicin. For binding experiments, COS7 cells were transiently transfected with the CRTH2 receptor using a calcium phosphate-DNA coprecipitation method with the addition of chloroquine (as described by Hoist et al., 2001*). To perform the functional Bioluminescence Resonance Energy Transfer (BRET) assays, a HEK293 cell clone stably expressing βarr2-GFP^2 and CRTH2-Rluc was generated (CRTH2-HEK293 cells).
Binding assay. 24 h after transfection COS-7 cells were seeded into 96 well plates at a density of 30.000 cells/well. Competition binding experiments on whole cells were then performed about 18-24 h later using 0.1 nM [^3H]PGD2 (NEN, 172 Ci/mmol) in a binding buffer consisting of HBSS (GIBCO) and 10 mM HEPES. Competing ligands were diluted in DMSO which was kept constant at 1% (v/v) of the final incubation volume. Total and nonspecific binding were determined in the absence and presence of 10 μM PGD2. Binding reactions were routinely conducted for 3 h at 4° C. and terminated by 2 washes (100 μl each) with ice cold binding buffer. Radioactivity was determined by liquid scintillation counting in a TOPCOUNTER (Packard) following over night incubation in Microscint 20. Stable HEK293 cells were seeded at a density of 30.000 cells/well 18-24 h prior to the binding assay which was performed essentially as described for COS7 cells above. Determinations were made in duplicates.
(§3) Curve analysis was performed with the GraphPadPrism software 3.0 (Graphpad Prism Inc., San Diego, USA) and IC50 values were calculated as a measure of the antagonistic potencies.

human CRTH2-Rluc = target: T2, human CRTH2-Rluc (Homo sapiens, UniProt Q9Y5Y4, V204A); assay: Functional antagonist BRET assay on HEK293 cells stably expressing CRTH2-Rluc and GFP2-β-arr2; type: cell-based; settings: antagonist incubated 15 minutes before agonist, read-out: Antag. IC50
T2 construct: expressed in transfected cells
T2 sequence (Q9Y5Y4 1-395 V204A): T1 sequence (Q9Y5Y4 1-395 V204A)
Text: as §1, §2
BRET assay. Functional BRET assays were performed on HEK293 cells stably expressing human CRTH2-Rluc and GFP^2-β-arr2. Prior to their use in the BRET assay cells were detached and re-suspended in D-PBS with 1000 mg/L L-Glucose at a density of 2×10^6 cells/mL. DeepBlueC™ was diluted to 50 μM in D-PBS with 1000 mg/L L-Glucose (light sensitive). 100 μL of cell suspension was transferred to wells in a 96-well microplate (white OptiPlate) and placed in the Mithras LB 940 instrument (BERTHOLD TECHNOLOGIES, Bad Wildbad, Germany). 12 μL/well agonist was then injected by injector 1 and 10 μL/well DeepBlueC™ was injected simultaneously by injector 2. Five seconds after the injections the light output from the well was measured sequentially at 400 nm and 515 nm, and the BRET signal (mBRET ratio) was calculated by the ratio of the fluorescence emitted by GFP^2-β-arr2 (515 nm) over the light emitted by the receptor-Rluc (400 nm). Antagonists were added before placing the microplates into the Mithras LB 940 and allowed to incubate for 15 minutes prior to the addition of agonist and DeepBlueC™. Compounds were dissolved in DMSO and the final DMSO concentration was kept constant at 1% in the assay.
as §3

SMILES | pIC50 (human CRTH2 receptor) | pIC50 (human CRTH2-Rluc)
O=C(O)Cc1sc(C(c2ccccc2)c2ccccc2)nc1-c1ccc(C(F)(F)F)cc1 [Compound A24, [2-Benzhydryl-4-(4-trifluoromethyl-phenyl)-thiazol-5-yl]-acetic acid] | 5.30 to 6.30 | < 5.30
O=C(O)Cc1sc(Cc2ccccc2-c2ccccc2)nc1-c1ccc(F)cc1 [Compound A36, [2-Biphenyl-2-ylmethyl-4-(4-fluoro-phenyl)-thiazol-5-yl]-acetic acid] | > 6.30 | > 6.30
COc1cccc(-c2ccccc2Cc2nc(-c3ccc(F)cc3)c(CC(=O)O)s2)c1 [Compound A37, [4-(4-Fluoro-phenyl)-2-(3′-methoxy-biphenyl-2-ylmethyl)-thiazol-5-yl]-acetic acid] | > 6.30 | > 6.30
N#Cc1ccc(-c2ccccc2Cc2nc(-c3ccc(F)cc3)c(CC(=O)O)s2)cc1 [Compound A38, [2-(4′-Cyano-biphenyl-2-ylmethyl)-4-(4-fluoro-phenyl)-thiazol-5-yl]-acetic acid] | > 6.30 | > 6.30
COc1ccc(-c2ccccc2Cc2nc(-c3ccc(F)cc3)c(CC(=O)O)s2)cc1 [Compound A40, [4-(4-Fluoro-phenyl)-2-(4′-methoxy-biphenyl-2-ylmethyl)-thiazol-5-yl]-acetic acid] | > 6.30 | > 6.30
O=C(O)Cc1sc(Cc2ccccc2-c2ccc3c(c2)OCO3)nc1-c1ccc(F)cc1 [Compound A42, [2-(2-Benzo[1,3]dioxol-5-yl-benzyl)-4-(4-fluoro-phenyl)-thiazol-5-yl]-acetic acid] | > 6.30 | > 6.30
CC(=O)N1CCC(c2ccccc2)(c2nc(-c3ccc(Cl)cc3)c(CC(=O)O)s2)CC1 [Compound A45] | > 6.30 | 5.30 to 6.30
O=C(O)Cc1sc(C2(c3ccccc3)CCNCC2)nc1-c1ccc(Cl)cc1 [Compound A46, [4-(4-Chloro-phenyl)-2-(4-phenyl-piperidin-4-yl)-thiazol-5-yl]-acetic acid] | 5.30 to 6.30 | < 5.30

Now from value to compound:

pIC50 (human CRTH2 receptor) | pIC50 (human CRTH2-Rluc) | SMILES
> 6.30 | > 6.30 | COc1ccc(C(c2ccc(OC)cc2)c2nc(-c3ccc(F)cc3)c(CC(=O)O)s2)cc1 [Compound A20, [2-[Bis-(4-methoxy-phenyl)-methyl]-4-(4-fluoro-phenyl)-thiazol-5-yl]-acetic acid]
> 6.30 | 5.30 to 6.30 | O=C(O)Cc1sc(C(c2ccccc2)c2ccccc2)nc1-c1ccc(Oc2ccccc2)cc1 [Compound A21, [2-Benzhydryl-4-(4-phenoxy-phenyl)-thiazol-5-yl]-acetic acid]
> 6.30 | > 6.30 | O=C(O)Cc1sc(C(c2ccccc2)c2ccc(O)cc2)nc1-c1ccc(F)cc1 (stereo not drawn) [Compound A22, {4-(4-Fluoro-phenyl)-2-[(4-hydroxy-phenyl)-phenyl-methyl]-thiazol-5-yl}-acetic acid]
> 6.30 | > 6.30 | O=C(O)Cc1sc(C(c2ccccc2)c2ccccc2)nc1-c1cccc(F)c1 [Compound A23, [2-Benzhydryl-4-(3-fluoro-phenyl)-thiazol-5-yl]-acetic acid]
> 6.30 | > 6.30 | O=C(O)Cc1sc(C(c2ccc(F)cc2)c2ccc(F)cc2)nc1-c1ccc(F)c(F)c1 [Compound A25, [2-[Bis-(4-fluoro-phenyl)-methyl]-4-(3,4-difluoro-phenyl)-thiazol-5-yl]-acetic acid]
> 6.30 | > 6.30 | O=C(O)Cc1sc(C(c2ccccc2)c2ccccc2)nc1-c1ccc(F)c(F)c1 [Compound A26, [2-Benzhydryl-4-(3,4-difluoro-phenyl)-thiazol-5-yl]-acetic acid]
> 6.30 | > 6.30 | O=C(O)Cc1sc(C(c2ccc(F)cc2)c2ccc(F)cc2)nc1-c1cccc(F)c1 [Compound A27, [2-[Bis-(4-fluoro-phenyl)-methyl]-4-(3-fluoro-phenyl)-thiazol-5-yl]-acetic acid]
> 6.30 | 5.30 to 6.30 | O=C(O)Cc1sc(C(c2ccccc2)c2ccccn2)nc1-c1ccc(Cl)cc1 (stereo not drawn) [Compound A28, [4-(4-Chloro-phenyl)-2-(phenyl-pyridin-2-yl-methyl)-thiazol-5-yl]-acetic acid]
> 6.30 | > 6.30 | COc1ccc(C(c2ccccn2)c2nc(-c3ccc(Cl)cc3)c(CC(=O)O)s2)cc1 (stereo not drawn) [Compound A31, {4-(4-Chloro-phenyl)-2-[(4-methoxy-phenyl)-pyridin-2-yl-methyl]-thiazol-5-yl}-acetic acid]
> 6.30 | > 6.30 | O=C(O)Cc1sc(Cc2ccccc2-c2ccccc2)nc1-c1ccc(Cl)cc1 [Compound A34, [2-Biphenyl-2-ylmethyl-4-(4-chloro-phenyl)-thiazol-5-yl]-acetic acid]

From US20080119456A1, “Substituted Thiazoleacetic Acid as Crth2 Ligands” (priority 2004, published 2008)
